± gives the expanded uncertainty stated by the source.
settings: Crystal; Heating/Cooling curves

Normal melting temperature [°C]	SMILES
-52.81 ± 1.2	CCC1COC(=O)O1 (stereo unspecified) [1,2-butylene carbonate]
11.33 ± 0.41	C1COCCO1 [1,4-dioxane]
-10.92 ± 0.6	CCn1cc[n+](C)c1.O=S(=O)([O-])C(F)(F)F [1-ethyl-3-methylimidazolium trifluoromethanesulfonate]
-44.08 ± 0.41	CC#N [acetonitrile]
3.91 ± 0.6	COC(=O)OC [dimethyl carbonate]
-55.01 ± 0.41	CCOC(=O)OC [ethyl methyl carbonate]
-73.44 ± 0.09	CCOC(=O)CC [ethyl propanoate]
35.38 ± 0.21	O=C1OCCO1 [ethylene carbonate]

The next lines start with the molecule.

SMILES	Normal melting temperature [°C]
COCCOC [1,2-dimethoxyethane]	-69.74 ± 0.21
COCCC#N [3-methoxypropanenitrile]	-63.62 ± 0.53
[2H]C([2H])([2H])S(=O)C([2H])([2H])[2H] [(methyl sulfoxide)-d6]	20.2 ± 0.21
CCOC(=O)OCC [diethyl carbonate]	-77.29 ± 0.6
C[S+](C)[O-] [dimethyl sulfoxide]	17.80 ± 2
CCCCCCCC[N+](C)(CCCCCCCC)CCCCCCCC.O=C([O-])C(F)(F)F [methyltrioctylammonium trifluoroacetate]	12.47 ± 0.21
C[N+](=O)[O-] [nitromethane]	-29.79 ± 0.41
O=C1CCCO1 [γ-butyrolactone]	-44.71 ± 0.21
